Assay results from the NIST ThermoML archive (doi:10.1021/je100484n).
Numbers after ± are expanded uncertainties.

Key:
[1] = refractive index (Na D-line) (dimensionless); details: 101.33 kPa, Liquid
[2] = 101 kPa, Liquid
[3] = refractive index (Na D-line) (dimensionless); xn = mol fraction of the nth substance listed; details: 101 kPa, Liquid
[4] = xn = mol fraction of the nth substance listed; details: 101 kPa, Liquid, x2 = 0

CC(C)(C)O [2-methylpropan-2-ol]
Details | mass density, 303.15 K [kg/m3] | mass density, 308.15 K [kg/m3] | mass density, 313.15 K [kg/m3] | mass density, 318.15 K [kg/m3] | mass density, 323.15 K [kg/m3] | refractive index, 303.15 K | refractive index, 308.15 K | refractive index, 313.15 K | refractive index, 318.15 K | refractive index, 323.15 K
[1] | – | – | – | – | – | 1.38222 ± 0.00062 | 1.37947 ± 0.00062 | 1.37667 ± 0.00062 | 1.37384 ± 0.00062 | 1.37097 ± 0.00062
[2] | 775.412 ± 0.49 | 770.193 ± 0.5 | 764.884 ± 0.51 | 759.488 ± 0.52 | 754.015 ± 0.52 | – | – | – | – | –

CC(C)(C)O [2-methylpropan-2-ol] + NC1CCCCC1
[3], x1 = 1
Details | refractive index
303.15 K | 1.38222 ± 0.00062
308.15 K | 1.37947 ± 0.00062
313.15 K | 1.37667 ± 0.00062
318.15 K | 1.37384 ± 0.00062
323.15 K | 1.37097 ± 0.00062

NC1CCCCC1 [cyclohexylamine]
[1]
Details | refractive index
303.15 K | 1.45375 ± 0.00065
308.15 K | 1.45114 ± 0.00065
313.15 K | 1.44856 ± 0.00065
318.15 K | 1.44599 ± 0.00065
323.15 K | 1.44336 ± 0.00065

NC1CCCCC1 [cyclohexylamine] + CC(C)(C)O
refractive index, [3]
Details | 303.15 K | 308.15 K | 313.15 K | 318.15 K | 323.15 K
x2 = 0 | 1.45375 ± 0.00065 | 1.45114 ± 0.00065 | 1.44856 ± 0.00065 | 1.44599 ± 0.00065 | 1.44336 ± 0.00065
x2 = 0.0508 | 1.45149 ± 0.00065 | 1.44888 ± 0.00065 | 1.44629 ± 0.00065 | 1.44368 ± 0.00065 | 1.44108 ± 0.00065
x2 = 0.1002 | 1.44914 ± 0.00065 | 1.44655 ± 0.00065 | 1.44395 ± 0.00065 | 1.44132 ± 0.00065 | 1.43876 ± 0.00065
x2 = 0.1502 | 1.44664 ± 0.00065 | 1.44404 ± 0.00065 | 1.44142 ± 0.00065 | 1.43884 ± 0.00065 | 1.43629 ± 0.00065
x2 = 0.2001 | 1.44406 ± 0.00064 | 1.44146 ± 0.00064 | 1.43888 ± 0.00064 | 1.4363 ± 0.00064 | 1.43371 ± 0.00064
x2 = 0.3005 | 1.43846 ± 0.00064 | 1.43586 ± 0.00064 | 1.43328 ± 0.00064 | 1.43068 ± 0.00064 | 1.42812 ± 0.00064
x2 = 0.3991 | 1.4325 ± 0.00064 | 1.42991 ± 0.00064 | 1.42732 ± 0.00064 | 1.42471 ± 0.00064 | 1.42218 ± 0.00064
x2 = 0.4996 | 1.42579 ± 0.00063 | 1.42321 ± 0.00063 | 1.42064 ± 0.00063 | 1.41804 ± 0.00063 | 1.41553 ± 0.00063
x2 = 0.5998 | 1.41855 ± 0.00063 | 1.41598 ± 0.00063 | 1.41339 ± 0.00063 | 1.41077 ± 0.00063 | 1.40818 ± 0.00063
x2 = 0.6997 | 1.41063 ± 0.00063 | 1.40805 ± 0.00063 | 1.40544 ± 0.00063 | 1.40284 ± 0.00063 | 1.40018 ± 0.00063
x2 = 0.7999 | 1.40191 ± 0.00063 | 1.39934 ± 0.00063 | 1.39676 ± 0.00063 | 1.39405 ± 0.00063 | 1.3914 ± 0.00063
x2 = 0.8712 | 1.39554 ± 0.00063 | 1.39281 ± 0.00063 | 1.39012 ± 0.00063 | 1.38734 ± 0.00063 | 1.38459 ± 0.00063
x2 = 0.8992 | 1.39261 ± 0.00063 | 1.38996 ± 0.00063 | 1.38723 ± 0.00063 | 1.3845 ± 0.00063 | 1.38176 ± 0.00063
x2 = 0.9504 | 1.38751 ± 0.00062 | 1.3848 ± 0.00062 | 1.38207 ± 0.00062 | 1.37923 ± 0.00062 | 1.37642 ± 0.00062

NC1CCCCC1 [cyclohexylamine] + CCCCCCC
refractive index, [3]
Details | 303.15 K | 308.15 K | 313.15 K | 318.15 K | 323.15 K
x1 = 0.0501 | 1.38508 ± 0.00063 | 1.38246 ± 0.00063 | 1.37983 ± 0.00063 | 1.37719 ± 0.00063 | 1.37451 ± 0.00063
x1 = 0.1002 | 1.38768 ± 0.00063 | 1.38507 ± 0.00063 | 1.38246 ± 0.00063 | 1.37983 ± 0.00063 | 1.37717 ± 0.00063
x1 = 0.1501 | 1.39038 ± 0.00063 | 1.38778 ± 0.00063 | 1.38516 ± 0.00063 | 1.38255 ± 0.00063 | 1.37991 ± 0.00063
x1 = 0.2305 | 1.39503 ± 0.00063 | 1.39245 ± 0.00063 | 1.38984 ± 0.00063 | 1.38719 ± 0.00063 | 1.38449 ± 0.00063
x1 = 0.3004 | 1.3993 ± 0.00063 | 1.39673 ± 0.00063 | 1.3941 ± 0.00063 | 1.39149 ± 0.00063 | 1.38874 ± 0.00063
x1 = 0.401 | 1.40584 ± 0.00064 | 1.40324 ± 0.00064 | 1.40059 ± 0.00064 | 1.39797 ± 0.00064 | 1.39527 ± 0.00064
x1 = 0.4497 | 1.40915 ± 0.00064 | 1.40655 ± 0.00064 | 1.40392 ± 0.00064 | 1.40129 ± 0.00064 | 1.39851 ± 0.00064
x1 = 0.5597 | 1.41708 ± 0.00064 | 1.41446 ± 0.00064 | 1.41182 ± 0.00064 | 1.40915 ± 0.00064 | 1.40647 ± 0.00064
x1 = 0.6001 | 1.42001 ± 0.00064 | 1.41739 ± 0.00064 | 1.41478 ± 0.00064 | 1.41215 ± 0.00064 | 1.40951 ± 0.00064
x1 = 0.6498 | 1.4238 ± 0.00064 | 1.4212 ± 0.00064 | 1.41859 ± 0.00064 | 1.41595 ± 0.00064 | 1.41327 ± 0.00064
x1 = 0.6994 | 1.42771 ± 0.00064 | 1.4251 ± 0.00064 | 1.42248 ± 0.00064 | 1.41981 ± 0.00064 | 1.41719 ± 0.00064
x1 = 0.7999 | 1.43588 ± 0.00065 | 1.43327 ± 0.00065 | 1.43065 ± 0.00065 | 1.428 ± 0.00065 | 1.42528 ± 0.00065
x1 = 0.8992 | 1.44452 ± 0.00065 | 1.44189 ± 0.00065 | 1.43928 ± 0.00065 | 1.43667 ± 0.00065 | 1.43405 ± 0.00065
x1 = 1 | 1.45375 ± 0.00065 | 1.45114 ± 0.00065 | 1.44856 ± 0.00065 | 1.44599 ± 0.00065 | 1.44336 ± 0.00065

CCCCCCC [heptane]
Details | mass density, 303.15 K [kg/m3] | mass density, 308.15 K [kg/m3] | mass density, 313.15 K [kg/m3] | mass density, 318.15 K [kg/m3] | mass density, 323.15 K [kg/m3] | refractive index, 303.15 K | refractive index, 308.15 K | refractive index, 313.15 K | refractive index, 318.15 K | refractive index, 323.15 K
[1] | – | – | – | – | – | 1.38259 ± 0.00063 | 1.37995 ± 0.00063 | 1.37731 ± 0.00063 | 1.37463 ± 0.00063 | 1.37197 ± 0.00063
[2] | 675.229 ± 0.66 | 670.941 ± 0.66 | 666.621 ± 0.67 | 662.273 ± 0.68 | 657.896 ± 0.68 | – | – | – | – | –

CCCCCCC [heptane] + CC(C)(C)O
[4]
Details | mass density [kg/m3]
303.15 K | 675.229 ± 0.66
308.15 K | 670.941 ± 0.66
313.15 K | 666.621 ± 0.67
318.15 K | 662.273 ± 0.68
323.15 K | 657.896 ± 0.68

[3], x2 = 0
Details | refractive index
303.15 K | 1.38259 ± 0.00063
308.15 K | 1.37995 ± 0.00063
313.15 K | 1.37731 ± 0.00063
318.15 K | 1.37463 ± 0.00063
323.15 K | 1.37197 ± 0.00063

CCCCCCC [heptane] + NC1CCCCC1
[3], x2 = 0
Details | refractive index
303.15 K | 1.38259 ± 0.00063
308.15 K | 1.37995 ± 0.00063
313.15 K | 1.37731 ± 0.00063
318.15 K | 1.37463 ± 0.00063
323.15 K | 1.37197 ± 0.00063
